Assay results: PubChem BioAssay AID1963834 (Molecular Pharmacology Branch, DTP, NCI, 2024)

Tested on: 873145-292-R-J1-PDC complex spheroid viability
Experiment: Anticancer human tumor 873145-292-R-J1-PDC patient-derived renal clear cell carcinoma cell line growth inhibition [POLQ]
Settings: for IC50: curve of first compound; for viability, T/C: stronger effect = lower value
Procedure: Multicellular complex tumor spheroid response to Polymerase (POL) inhibitors (novobiocin, ART-558, RP6685) in combination with a variety of drugs and investigational agents in selected tumor cell lines
The POL inhibitors (novobiocin, ART-558, and RP6685) were evaluated both individually and in combination with standard of care and investigational anticancer small molecules within a complex spheroid model of solid tumors. . Complex spheroids include a stromal component modeled by human endothelial cells (HUVEC) and fibroblasts modeled by human mesenchymal stem cells (MSCs). The concentration ranges selected for each drug and investigational agent were based upon clinically achievable concentrations if the clinical Cmax of the agent was known.
Compounds. The drugs and investigational agents: novobiocin (NSC847541), ART-558 (NSC835418), RP-6685 (NSC848927), peposertib (NSC802822), ceralasertib (NSC780249), elimusertib (NSC800525), camonsertib (NSC841442), AZD-1390 (NSC803789), olaparib (NSC753686), talazoparib (NSC767125), rucaparib (NSC756644), sotorasib (NSC818433), MRTX-1133 (NSC836407), SN-38 (NSC673596), topotecan (NSC609699), epotoside (NSC141540), doxorubicin (NSC123127), gemcitabine (NSC613327), 5-fluorouracil (NSC19893), paclitaxel (NSC125973), vemurafenib (NSC761431), MSA-2 (NSC828583), SN-011 (NSC837082), adavosertib (NSC754352), prexasertib (NSC758257), carboplatin (NSC241240) and oxaliplatin (NSC266046), were obtained from the National Cancer Institute (NCI) Developmental Therapeutics Program Chemical Repository (21). The FDA-approved anticancer drug set is available from the Developmental Therapeutics Program at https://dtp.cancer.gov/organization/dscb/obtaining/. […] The stock solutions were prepared in dimethyl sulfoxide (DMSO, Sigma-Aldrich, St. Louis, MO, cat. D2650), except for the platinum compounds which were prepared in saline (Quality Biological, Gaithersburg, MD, cat. 114-055-101), at 800-fold the tested concentration and stored at -70 degrees C prior to their use. All drugs and investigational agents were tested over a range starting from a high concentration at or near the clinical Cmax and decreasing in half-log increments. If the clinical Cmax for an agent had not been determined, the highest concentration tested was 10 microM, except for SN-38, which was tested at a high concentration of 1 microM.
Cell Culture. All cells were maintained in an incubator at 37 degrees C and 5% CO2 with 95% humidity. The PDC lines were cultured according to standard operating procedures established by the NCI PDMR (https://pdmr.cancer.gov). Table 3 of the manuscript, lists the cell lines along with the number of the three cell types plated to form the mct-spheroids and media for tumor cell growth. After thawing, all PDC lines, except 997537-175-T-J1-PDC and 415267-285-R-J2-PDC, were cultured in Matrigel-coated flasks prepared with a working solution of 1X Ham's F-12 nutrient mix, without supplementation (Thermo Fisher Scientific, cat. 11765054), 100 U/mL penicillin-streptomycin (Thermo Fisher Scientific, cat. 15140122), and 2.5% Matrigel (Corning Inc., Corning, NY, cat. 354248) for the first three passages. The two PDC lines 997537-175-T-J1-PDC and 415267-285-R-J2-PDC were cultured on uncoated flasks. The 857933-349-R-J2-PDC line was cultured in 6C/Colon 1B media containing advanced DMEM/F-12 (Thermo Fisher Scientific, cat. 12634028), 10 mM HEPES (Thermo Fisher Scientific, cat. 15630080), 1X GlutaMAX supplement (Thermo Fisher Scientific, cat. 35050061), 0.1 mg/mL primocin (InvivoGen, San Diego, CA, cat. ant-pm-2), 10% defined fetal bovine serum, heat inactivated (HyClone Laboratories Inc., Logan, UT, cat. SH30070.03HI), 50% L-WRN conditioned media (ATCC, cat. CRL-3276), 1.25 mM N-Acetyl-L-cysteine (Sigma-Aldrich, cat. A9165), 10 mM nicotinamide (Sigma-Aldrich, cat. N0636), 1X B-27 supplement (Thermo Fisher Scientific, cat. 17504044), 1X N-2 supplement (Thermo Fisher Scientific, cat. […]

[1] = second compound 0.0316 µM, first compound 0.0316 µM
[2] = second compound 0.0316 µM, first compound 0.1 µM
[3] = second compound 0.0316 µM, first compound 0.316 µM
[4] = second compound 0.0316 µM, first compound 1 µM
[5] = second compound 0.0316 µM, first compound 3.16 µM
[6] = second compound 0.0316 µM, first compound 10 µM
[7] = second compound 0.1 µM, first compound 0.0316 µM
[8] = second compound 0.1 µM, first compound 0.1 µM
[9] = second compound 0.1 µM, first compound 0.316 µM
[10] = second compound 0.1 µM, first compound 1 µM
[11] = second compound 0.1 µM, first compound 3.16 µM
[12] = second compound 0.1 µM, first compound 10 µM
[13] = second compound 0.316 µM, first compound 0.0316 µM
[14] = second compound 0.316 µM, first compound 0.1 µM
[15] = second compound 0.316 µM, first compound 0.316 µM
[16] = second compound 0.316 µM, first compound 1 µM
[17] = second compound 0.316 µM, first compound 3.16 µM
[18] = second compound 0.316 µM, first compound 10 µM
[19] = second compound 1 µM, first compound 0.0316 µM
[20] = second compound 1 µM, first compound 0.1 µM
[21] = second compound 1 µM, first compound 0.316 µM
[22] = second compound 1 µM, first compound 1 µM
[23] = second compound 1 µM, first compound 3.16 µM
[24] = second compound 1 µM, first compound 10 µM
[25] = second compound 3.16 µM, first compound 0.0316 µM
[26] = second compound 3.16 µM, first compound 0.1 µM
[27] = second compound 3.16 µM, first compound 0.316 µM
[28] = second compound 3.16 µM, first compound 1 µM
[29] = second compound 3.16 µM, first compound 3.16 µM
[30] = second compound 3.16 µM, first compound 10 µM
[31] = second compound 10 µM, first compound 0.0316 µM
[32] = second compound 10 µM, first compound 0.1 µM
[33] = second compound 10 µM, first compound 0.316 µM
[34] = second compound 10 µM, first compound 1 µM
[35] = second compound 10 µM, first compound 3.16 µM
[36] = second compound 10 µM, first compound 10 µM
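Further: spheroids exposed to compounds for 7 days before viability readout.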
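Wherever viability, T/C is given: luminescence signal used as surrogate for viable cell content; 100% = DMSO vehicle control viability.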

SMILES: Nc1ccn(C2OC(CO)C(O)C2(F)F)c(=O)n1 (centres undefined) + Nc1ccc(C#CCN(C(=O)Cc2ncc(C(F)(F)F)cc2C(F)(F)F)c2ccc(F)cc2)nn1
- IC50 (second compound 0.0316 µM): > 10 µM
- IC50 (second compound 0.1 µM): > 10 µM
- IC50 (second compound 0.316 µM): 10 µM
- IC50 (second compound 1 µM): > 10 µM
- IC50 (second compound 3.16 µM): > 10 µM
- IC50 (second compound 10 µM): > 10 µM
- viability, T/C [1]: 70.6%
- viability, T/C [2]: 72.4%
- viability, T/C [3]: 61%
- viability, T/C [4]: 56.2%
- viability, T/C [5]: 58.5%
- viability, T/C [6]: 55.8%
- viability, T/C [7]: 71.6%
- viability, T/C [8]: 70.2%
- viability, T/C [9]: 57.3%
- viability, T/C [10]: 54.5%
- viability, T/C [11]: 49.5%
- viability, T/C [12]: 51.7%
- viability, T/C [13]: 73.8%
- viability, T/C [14]: 80.5%
- viability, T/C [15]: 52.6%
- viability, T/C [16]: 54.8%
- viability, T/C [17]: 59.1%
- viability, T/C [18]: 53.4%
- viability, T/C [19]: 67.7%
- viability, T/C [20]: 65.8%
- viability, T/C [21]: 61.8%
- viability, T/C [22]: 70.3%
- viability, T/C [23]: 55.6%
- viability, T/C [24]: 51.7%
- viability, T/C [25]: 72.9%
- viability, T/C [26]: 66.6%
- viability, T/C [27]: 73.7%
- viability, T/C [28]: 64.2%
- viability, T/C [29]: 54.5%
- viability, T/C [30]: 63%
- viability, T/C [31]: 82.7%
- viability, T/C [32]: 67.6%
- viability, T/C [33]: 61.4%
- viability, T/C [34]: 62.1%
- viability, T/C [35]: 59.4%
- viability, T/C [36]: 67.2%

SMILES: CCCS(=O)(=O)Nc1ccc(F)c(C(=O)c2c[nH]c3ncc(-c4ccc(Cl)cc4)cc23)c1F + COC1C(OC(N)=O)C(O)C(Oc2ccc3c(O)c(NC(=O)c4ccc(O)c(CC=C(C)C)c4)c(=O)oc3c2C)OC1(C)C
- IC50 (second compound 0.0316 µM): > 10 µM
- IC50 (second compound 0.1 µM): > 10 µM
- IC50 (second compound 0.316 µM): > 10 µM
- IC50 (second compound 1 µM): > 10 µM
- IC50 (second compound 3.16 µM): > 10 µM
- IC50 (second compound 10 µM): > 10 µM
- viability, T/C [1]: 118%
- viability, T/C [2]: 98.8%
- viability, T/C [3]: 99.4%
- viability, T/C [4]: 107%
- viability, T/C [5]: 90.7%
- viability, T/C [6]: 62.5%
- viability, T/C [7]: 113%
- viability, T/C [8]: 108%
- viability, T/C [9]: 108%
- viability, T/C [10]: 112%
- viability, T/C [11]: 89.8%
- viability, T/C [12]: 57.7%
- viability, T/C [13]: 104%
- viability, T/C [14]: 92.5%
- viability, T/C [15]: 98.9%
- viability, T/C [16]: 99.8%
- viability, T/C [17]: 94.9%
- viability, T/C [18]: 57.3%
- viability, T/C [19]: 96.9%
- viability, T/C [20]: 111%
- viability, T/C [21]: 102%
- viability, T/C [22]: 107%
- viability, T/C [23]: 94.2%
- viability, T/C [24]: 60.9%
- viability, T/C [25]: 102%
- viability, T/C [26]: 103%
- viability, T/C [27]: 105%
- viability, T/C [28]: 91.2%
- viability, T/C [29]: 89.5%
- viability, T/C [30]: 53.2%
- viability, T/C [31]: 89.3%
- viability, T/C [32]: 93.3%
- viability, T/C [33]: 98.8%
- viability, T/C [34]: 106%
- viability, T/C [35]: 93.2%
- viability, T/C [36]: 64.7%
